Reference: publication PMC11050952 (Marine Drugs, 2024)
“And” between values parts separate entries of the source, which are not always exact repeats. Identical values can stand only once. “Also recorded” adds a separate entry of the source. Like-named read-outs stand apart in the source and are kept apart here.

What was measured:
[1] = system: Neuro-2a cells; conditions: cited from earlier work
[2] = system: Nav currents in Neuro-2a cells (voltage-gated sodium channels, VGSCs); format: cell-based, murine
[3] = read-out: IC50 (inhibition of Nav currents)

For C[C@@H]1C[C@@H]2[C@@H](O)N=C(N)N[C@]23[C@H](O)C(=O)O[C@H]1[C@H]3O [5,6,11-trideoxyTTX], the “Toxicity equivalency factor (TEF)” value [1] is listed as 0.011.

CCN(CC)CC(=O)Nc1c(C)cccc1C [Lidocaine, lidocaine] gave an IC50 [2, 3] of 717000 nM.

CCCCNc1ccc(C(=O)OCCN(C)C)cc1 [tetracaine] gave an IC50 [2, 3] of 22500 nM.

For NC1=N[C@H](O)[C@H]2[C@H]3O[C@]4(O)O[C@@H]([C@@H](O)[C@@]2(N1)[C@@H]4O)[C@]3(O)CO [TTX, Tetrodotoxin], the “Hill Slope” value [2] was 0.997 ± 0.068 and 0.910 ± 0.120 and 1.167 ± 0.204 and 0.801 ± 0.149 and 1.089 ± 0.097, the “Reversibility of Nav current blockage” value [2] was “could be reversed” and the “TTX concentration giving 20% blockade (minimum detectable blockade)” value [2] was 0.5 ng/mL. The “Inhibition of Nav currents” value ([2]; 0.1 µM) was “completely inhibited; also recorded: complete inhibitions”, the IC50 ([2]; read-out: IC50 (blockade of Nav currents)) was 6.4 nM and the IC50 ([2]; read-out: IC50 Value) was 4.93 nM and 5.02 nM and 5.12 nM and 4.26 nM and 6.38 nM.
